# Measurements: patent publication US10167257B2, “Indole derivatives for use in medicine” (IOmet Pharma Ltd., priority 2014, dated 2019)
# Legend:
# TDO (A172 cells) = biological target: T1, TDO (A172 cells) (Homo sapiens, UniProt P48775); assay: TDO cell-based assay (A172), kynurenine production; details: A172 human glioblastoma cells, 500 μM L-Trp, 48 h, kynurenine by absorbance at 490 nm
# T1 construct: This assay utilised cancer cells which expressed either TDO or IDO; host or cells: A172 human glioblastoma cells
# T1 sequence (P48775 whole entry): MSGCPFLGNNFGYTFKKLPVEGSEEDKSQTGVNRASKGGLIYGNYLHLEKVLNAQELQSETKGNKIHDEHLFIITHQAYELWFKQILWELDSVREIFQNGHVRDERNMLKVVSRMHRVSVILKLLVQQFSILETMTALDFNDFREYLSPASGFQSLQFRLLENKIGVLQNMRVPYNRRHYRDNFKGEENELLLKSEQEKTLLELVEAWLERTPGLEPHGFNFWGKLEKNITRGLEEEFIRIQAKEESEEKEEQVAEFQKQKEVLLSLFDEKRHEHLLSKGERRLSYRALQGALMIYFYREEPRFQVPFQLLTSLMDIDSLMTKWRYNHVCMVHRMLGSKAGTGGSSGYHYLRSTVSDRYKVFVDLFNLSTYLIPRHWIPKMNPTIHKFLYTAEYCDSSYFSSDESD
# Method in brief: (§1)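 SKOV-3 cells (IDO, induced with 500 ng/ml IFNγ) or A172 glioblastoma cells (TDO) were incubated with compound and 500 μM L-Trp for 48 h at 37 °C in phenol-red-free RPMI with dialysed serum. Supernatant kynurenine was measured with 1% Ehrlich's reagent as absorbance at 490 nm.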
# IDO (SKOV-3 cells) = biological target: T2, IDO (SKOV-3 cells) (Homo sapiens, UniProt P14902); assay: IDO cell-based assay (SKOV-3, IFNγ-induced), kynurenine production; details: SKOV-3 ovary adenocarcinoma cells, IFNγ 500 ng/ml, 500 μM L-Trp, 48 h, kynurenine by absorbance at 490 nm
# T2 construct: This assay utilised cancer cells which expressed either TDO or IDO; host or cells: SKOV-3 ovary adenocarcinoma cells, IFNγ-induced
# T2 sequence (P14902 whole entry): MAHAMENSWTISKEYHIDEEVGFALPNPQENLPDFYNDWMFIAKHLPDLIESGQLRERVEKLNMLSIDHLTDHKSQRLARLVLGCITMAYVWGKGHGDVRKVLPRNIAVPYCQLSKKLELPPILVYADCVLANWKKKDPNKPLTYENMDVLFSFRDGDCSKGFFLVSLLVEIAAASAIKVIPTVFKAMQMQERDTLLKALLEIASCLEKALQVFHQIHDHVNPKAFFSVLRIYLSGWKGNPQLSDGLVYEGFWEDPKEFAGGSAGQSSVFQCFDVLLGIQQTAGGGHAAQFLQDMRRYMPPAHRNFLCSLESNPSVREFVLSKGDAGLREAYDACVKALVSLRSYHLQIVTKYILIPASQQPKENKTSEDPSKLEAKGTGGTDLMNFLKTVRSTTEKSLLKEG
# Method in brief: as §1
SMILES,TDO cellular assay (A172) pIC50 (TDO (A172 cells)),IDO cellular assay (SKOV3) pIC50 (IDO (SKOV-3 cells))
Cn1cc(C2(NC(=O)c3cc4cc(Cl)ccc4[nH]3)CCCC2)cn1 [Compound 250],− (− = pIC50 <4.50),+++ (+++ = pIC50 ≥5.50)
O=C(NC1(c2ccccc2)CCCC1)c1cc2cc(Cl)ccc2[nH]1 [Compound 230],− (− = pIC50 <4.50),+++ (+++ = pIC50 ≥5.50)
COCCn1cc(C(C)NC(=O)c2cc3cc(C#N)ccc3[nH]2)cn1 (stereo not drawn) [Compound 197],− (− = pIC50 <4.50),+ (+ = pIC50 4.50-<5.00)
CC(C)Oc1ccc2[nH]c(C(=O)NC3(c4ccccc4)CC3)cc2c1 [Compound 261],− (− = pIC50 <4.50),+++ (+++ = pIC50 ≥5.50)
O=C(Nc1cccc2ccccc12)c1cc2cc(F)ccc2[nH]1 [Compound 51],− (− = pIC50 <4.50),+++ (+++ = pIC50 ≥5.50)
C[C@H](NC(=O)c1cc2cc(Cl)ccc2[nH]1)c1ccc(Cl)cc1 [Compound 75],− (− = pIC50 <4.50),+++ (+++ = pIC50 ≥5.50)
Cc1nc(C(C)NC(=O)c2cc3cc(C#N)ccc3[nH]2)co1 (stereo not drawn) [Compound 222],− (− = pIC50 <4.50),++ (++ = pIC50 5.00-<5.50)
O=C(NCc1nc(-c2ccccc2)no1)c1cc2cc(Cl)ccc2[nH]1 [Compound 129],− (− = pIC50 <4.50),++ (++ = pIC50 5.00-<5.50)
CC(CCNS(C)(=O)=O)NC(=O)c1cc2cc(Cl)ccc2[nH]1 (stereo not drawn) [Compound 122],− (− = pIC50 <4.50),++ (++ = pIC50 5.00-<5.50)
CC(C)C(NC(=O)c1cc2cc(Cl)ccc2[nH]1)c1cnn(C)c1 (stereo not drawn) [Compound 259],− (− = pIC50 <4.50),+++ (+++ = pIC50 ≥5.50)
CNC(=O)c1ccc2[nH]c(C(=O)NC(C)c3ccccc3)cc2c1 (stereo not drawn) [Compound 106],− (− = pIC50 <4.50),+ (+ = pIC50 4.50-<5.00)
CC(NC(=O)c1cc2cc(Cl)ccc2[nH]1)c1ccc(N(C)C)cc1 (stereo not drawn) [Compound 87],+ (+ = pIC50 4.50-<5.00),+++ (+++ = pIC50 ≥5.50)
CC(NC(=O)c1cc2cc(Br)ccc2[nH]1)c1cnn(C)c1 (stereo not drawn) [Compound 254],− (− = pIC50 <4.50),+++ (+++ = pIC50 ≥5.50)
O=C(NC(c1ccccc1)C1CC1)c1cc2c(F)cccc2[nH]1 (stereo not drawn) [Compound 12],− (− = pIC50 <4.50),+++ (+++ = pIC50 ≥5.50)
CC(NC(=O)c1cc2cc(Cl)ccc2[nH]1)c1ccc(C(=O)N2CCN(C)CC2)cc1 (stereo not drawn) [Compound 91],− (− = pIC50 <4.50),+ (+ = pIC50 4.50-<5.00)
Cc1c(C2(NC(=O)c3cc4cc(Cl)ccc4[nH]3)CC2)cnn1C [Compound 198],− (− = pIC50 <4.50),+++ (+++ = pIC50 ≥5.50)
O=C(NC1(c2ccncc2)CC1)c1cc2cc(Cl)ccc2[nH]1 [Compound 223],− (− = pIC50 <4.50),+++ (+++ = pIC50 ≥5.50)
O=C(NC1(c2ccccc2)CC1)c1cc2cc(Cl)cc(F)c2[nH]1 [Compound 188],+ (+ = pIC50 4.50-<5.00),+++ (+++ = pIC50 ≥5.50)
CC(NC(=O)c1cc2cc(Cl)ccc2[nH]1)c1ncco1 (stereo not drawn) [Compound 104],+ (+ = pIC50 4.50-<5.00),++ (++ = pIC50 5.00-<5.50)
O=C(NCc1ccc(F)cc1)c1cc2cc(Cl)ccc2[nH]1 [Compound 28],− (− = pIC50 <4.50),+ (+ = pIC50 4.50-<5.00)
CC(NC(=O)c1cc2ccccc2[nH]1)c1ccccn1 (stereo not drawn) [Compound 37],− (− = pIC50 <4.50),+ (+ = pIC50 4.50-<5.00)
